The text below walks through data of ChEMBL document CHEMBL3430912, “GSK Tres Cantos Anti-Kinetoplastid Screening (TCAKS) Data”.

Where only a bound is given, the exact number is not on record here.

In data set [1] the test system is Trypanosoma cruzi. Kind of data set: GSK_TCAKS: pIC50 Trypanosoma cruzi viability assay using beta-GAL activity. This assay was run at single shot at 5uM compound concentration per well. The biological reagents consisted of NIH-3T3 host cells and trypomastigotes parasitic cells; both cell types were set to a 3.3 * 10^5 cells/mL dilution in assay DMEM by means of a CASY cell counter device using a 60um capillary. 6 uL of the mixture were dispensed per well (about 1 * 10^3 host-cells and 1 * 10^3 parasites) with a Multidrop Combi dispenser. […] In all wells, the percentage of DMSO never exceeded 0.5%. Plates incubated for four days at 37C, 5% CO2. The substrate used for the assay fluorescence intensity (FLINT) readout was resorufin-beta-D-galactopiranoside (Sigma-Aldrich) at 5uM per well. It was diluted in PBS supplemented with the soft detergent Igepal (Fluka). Conditions: Tulahuen, NIH3T3. In kind it is functional, organism-based, Mus musculus.

Data set [2] deals with Trypanosoma cruzi. Kind of data set: (§1) GSK_TCAKS: pIC50 Trypanosoma cruzi Imaging: Infected Cells. […] Cells were then washed once with PBS before infection. T. cruzi trypomastigotes, collected at days 5 to 8 after infection from LLC-MK2 parasite infected cultures, were allowed to swim out for 4h at 37C from a centrifuged pellet (2,500 rpm/10 min/room temperature). Trypomastigotes were then collected and counted in a CASY Cell Counter. Trypomastigotes, in supplemented DMEM, were added to H9c2 cultures in a multiplicity of infection of 1 and incubated for 18 h. Cells were washed once with PBS before incubation of the infected H9c2 monolayer with trypsin (Life-Technologies) to detach cells from the flask. Cells were counted in a CASY Cell Counter using a 150 um capillary and their density set at 5 * 10^4 cells per mL in supplemented assay DMEM. Infected H9c2 were dispensed into 384-well poly-lysine coated assay plates at 50uL per well using a Multidrop Combi dispenser. After seeding them, the plates were incubated at 37C, 5% CO2 for 72h. Cultures were then fixed and stained by addition of 50 uL of a solution containing 8% formaldehyde and 4 uM DRAQ5 DNA dye (BioStatus, UK) per well. […] Five images were collected per well for reliable statistical analysis. Automated image analysis was performed with a script developed on Acapella High Content Imaging and Analysis Software (PerkinElmer). Output: percentage of infected cells per well as a second infection marker. In kind it is functional, organism-based, Rattus norvegicus. Conditions: H9c2, 4 h.

Data set [3] deals with Trypanosoma cruzi. Kind of data set: GSK_TCAKS: pIC50 Trypanosoma cruzi Imaging: Amastigotes/Cell. […] Cells were then washed once with PBS before infection. T. cruzi trypomastigotes, collected at days 5 to 8 after infection from LLC-MK2 parasite infected cultures, were allowed to swim out for 4h at 37C from a centrifuged pellet (2,500 rpm/10 min/room temperature). Trypomastigotes were then collected and counted in a CASY Cell Counter. Trypomastigotes, in supplemented DMEM, were added to H9c2 cultures in a multiplicity of infection of 1 and incubated for 18 h. Cells were washed once with PBS before incubation of the infected H9c2 monolayer with trypsin (Life-Technologies) to detach cells from the flask. Cells were counted in a CASY Cell Counter using a 150 um capillary and their density set at 5 * 10^4 cells per mL in supplemented assay DMEM. Infected H9c2 were dispensed into 384-well poly-lysine coated assay plates at 50uL per well using a Multidrop Combi dispenser. After seeding them, the plates were incubated at 37C, 5% CO2 for 72h. Cultures were then fixed and stained by addition of 50 uL of a solution containing 8% formaldehyde and 4 uM DRAQ5 DNA dye (BioStatus, UK) per well. […] Five images were collected per well for reliable statistical analysis. Automated image analysis was performed with a script developed on Acapella High Content Imaging and Analysis Software (PerkinElmer). Output: number of amastigotes per cell as infection level measurement. In kind it is functional, organism-based, Rattus norvegicus. Conditions: H9c2, 4 h.

The test system of data set [4] is Trypanosoma cruzi. The data set is described as §1, with “H2C9” for “Trypanosoma cruzi”, “H9c2 Host Cardiomyocytes.” for “Infected Cells.”, “Number” for “percentage”, “H9c2 Host Cardiomyocytes nuclei to determine drug-related cytotoxicity.” for “infected cells per well as a second infection marker.”. In kind it is functional, organism-based, Rattus norvegicus. Conditions: H9c2, 4 h.

Data set [5] deals with Leishmania donovani. Kind of data set: GSK_TCAKS: pIC50 Leishmania donovani viability assay using fluorescence intensity. Assay plates (1536-well) were prepared by adding 30nL per well of compound. For single shot assay, the final compound concentration was 5uM. […] Briefly, eGFP LdBOB axenic amastigotes were harvested, fixed and counted in a CASY cell counter (Roche-Applied Science). A final concentration of 1.5 * 10^5 cells per well were prepared in amastigote media containing 500 U/mL penicillin/streptomycin (Invitrogen) and 6uL was dispensed to each experimental well using a Multidrop Combi dispenser (Thermo Scientific). 6uL of assay media was dispensed to control columns used as reference for 100% compound response. Following incubation for 72 h at 37C, 5% CO2, 2 uL of resazurin was added to each well at a final concentration of 0.5 mM in phosphate buffered saline (PBS) with IGEPAL (Sigma-Aldrich), 0.05% (v/v). In kind it is functional, organism-based. A general note: Resazurin is reduced to fluorescent resorufin, in cell work by metabolically active cells.

Data set [6] concerns Leishmania donovani. The data set is described as follows: GSK_TCAKS: pIC50 Leishmania donovani Imaging: Infected Macrophages. Assay plates (384-well) were prepared by adding 250nL of compound to each well. For single shot assay, the final compound concentration was 5 uM. […] Automated image analysis was performed with a script developed on Acapella High Content Imaging and Analysis Software (PerkinElmer). Output: Percent of infected macrophage cells were reported for each well. In kind it is functional, organism-based, Homo sapiens. The following applies: THP-1.

Data set [7] has as its system Leishmania donovani. The data set is described as follows: GSK_TCAKS: pIC50 Leishmania donovani Imaging: Amastigotes/Macrophages. Assay plates (384-well) were prepared by adding 250nL of compound to each well. For single shot assay, the final compound concentration was 5 uM. […] Automated image analysis was performed with a script developed on Acapella High Content Imaging and Analysis Software (PerkinElmer). Output: Average number of amastigotes per macrophage cell were reported for each well. In kind it is functional, organism-based, Homo sapiens. Conditions: THP-1.

The test system of data set [8] is Leishmania donovani. Kind of data set: GSK_TCAKS: pIC50 Leishmania donovani Imaging: THP-1 Host Macrophages. Assay plates (384-well) were prepared by adding 250nL of compound to each well. For single shot assay, the final compound concentration was 5 uM. […] Automated image analysis was performed with a script developed on Acapella High Content Imaging and Analysis Software (PerkinElmer). Output: THP-1 cell count were reported for each well. In kind it is functional, organism-based, Homo sapiens.

The test system of data set [9] is Trypanosoma brucei brucei. The data set is described as follows: GSK_TCAKS: pIC50 Trypanosoma brucei viability assay using fluorescence intensity. Assay plates (1536-well) were prepared by dispensing 25nL of compound solution per well using an Echo acoustic dispenser (Labcyte). In kind it is functional, organism-based. The following applies: Lister 427, 2 h.
Data set [10] concerns Trypanosoma brucei brucei. The data set is described as follows: GSK_TCAKS: pIC50 Trypanosoma brucei viability assay using luminiscence. Assay plates (1536-well) were prepared. T. brucei cultures were harvested and counted in a CASY cell counter. A parasite suspension was prepared at a final concentration of 5 * 10^4 cells/mL in complete HMI9 medium and 6uL was dispensed to all wells containing compounds using a Multidrop Combi dispenser. 6uL of HMI9 media with 0.4% DMSO were dispensed to control columns. Plates were incubated for 24 h at 37C, 5% CO2 then tempered for 10 min at room temperature. ATP content was quantified by adding 4 uL of CellTiter-Glo Reagent (Promega) according to the manufacturer's instructions. Luminescence was measured using a ViewLux. In kind it is functional, organism-based. Conditions: Lister 427, CASY.

A short description of data set [11]: GSK_TCAKS: pIC50 HepG2 human cell line viability assay using luminiscence. […] Seeding density was checked to ensure that new mono-layers were not more than 50% confluent at the time of harvesting. Cell suspension was added to 500 mL of the same medium at a final density of 1.2 * 10^5 cells/mL. This cell suspension was dispensed (25 uL, 3000 cells per well) into 384-well clear-bottom plates using a Multidrop Combi dispenser. Prior to addition of the cell suspension, the screening compounds (250 nL) were pre-dispensed into the plates with an Echo liquid handler. Plates were incubated for 48 h at 37C, 5% CO2. After incubation, plates equilibrated at room temperature for 30 min before proceeding to develop the luminescent signal. The signal developer, CellTiter-Glo Reagent, was allowed to equilibrate at room temperature for 30 min and added to the plates (25uL per well) using a Multidrop Combi dispenser. Plates were left for 10 min at room temperature for stabilization and then read using a ViewLux. In kind it is toxicity, cell-based. Background: In ATP-based viability assays light output follows the ATP content of the culture.

The next data set has as its system NIH3T3. Kind of data set: GSK_TCAKS: pIC50 NIH 3T3 cell line viability assay using luminiscence. Tissue culture surface treated assay plates (1536-well) were used. […] The 100% cells survival control was determined exposing the host-cells to a 0.5% DMSO concentration, whereas the 100% toxicity control was achieved by seeding the cells in presence of Amphotericin B at 50uM. Plates were incubated for four days at 37C, 5% CO2. The assay readout was developed by addition of 5uL of CellTiter-Glo Reagent following the manufacturer's instructions. Luminiscence was measured using a ViewLux. In kind it is functional, cell-based. The following applies: Mus musculus, NIH3T3, 96 h.

Data set [12] concerns the target Sterol 14-alpha demethylase (Trypanosoma cruzi (strain CL Brener), UniProt Q7Z1V1). The data set is described as follows: GSK_TCAKS: pIC50 CYP51 from Trypanosoma cruzi. In kind it is functional.

Chain of Sterol 14-alpha demethylase (Q7Z1V1 whole entry): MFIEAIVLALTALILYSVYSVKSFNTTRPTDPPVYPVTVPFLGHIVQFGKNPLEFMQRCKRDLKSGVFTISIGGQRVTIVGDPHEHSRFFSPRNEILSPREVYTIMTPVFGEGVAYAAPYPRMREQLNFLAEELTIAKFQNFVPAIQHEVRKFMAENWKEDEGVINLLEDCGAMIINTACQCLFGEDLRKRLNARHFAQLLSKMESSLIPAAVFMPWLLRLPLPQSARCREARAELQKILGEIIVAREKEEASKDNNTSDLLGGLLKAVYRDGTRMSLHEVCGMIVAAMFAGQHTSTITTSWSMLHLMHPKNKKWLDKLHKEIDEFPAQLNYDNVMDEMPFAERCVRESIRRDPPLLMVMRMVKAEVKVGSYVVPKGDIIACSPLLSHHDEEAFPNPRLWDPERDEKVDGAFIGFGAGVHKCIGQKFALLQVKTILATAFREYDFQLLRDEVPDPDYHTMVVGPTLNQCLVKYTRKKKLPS

One may read the IC50 as the point on the concentration scale where inhibition reaches its midpoint. With `CC1CN(S(=O)(=O)c2ccc(NC(=O)c3cc(C4CC4)nc4c3cnn4C(C)C)cc2)CC(C)O1` (stereo not given), the IC50 is 0.631 µM with Trypanosoma cruzi [1]; 0.794 µM in the data set on Trypanosoma cruzi [2]; 0.631 µM in the data set on Trypanosoma cruzi [3]; > 50.1 µM with Trypanosoma cruzi [4]; 20 µM in the data set with Leishmania donovani [5]; > 50.1 µM in the data set with Leishmania donovani [6]. For the same molecule, the IC50 in the data set on Leishmania donovani [7] is > 50.1 µM; in the data set on Leishmania donovani [8], 10 µM; in data set [9], 6.31 µM; in [10] it was 6.31 µM; in the data set on NIH3T3 it was > 50.1 µM; in data set [12], > 100 µM. For the same molecule, in data set [11], the IC50 at 48 h is > 100 µM.

With `O=C(NCCc1cccnc1)c1csc(-c2ccccc2)n1`, the IC50 with Trypanosoma cruzi [1] is 0.282 µM; with Trypanosoma cruzi [2], 0.501 µM; with Trypanosoma cruzi [3], 0.398 µM; in the data set with Trypanosoma cruzi [4], > 50.1 µM; in the data set with Leishmania donovani [5], > 50.1 µM; in the data set with Leishmania donovani [6], > 50.1 µM. Besides, the IC50 in the data set with Leishmania donovani [7] was > 50.1 µM; in the data set on Leishmania donovani [8] it was > 50.1 µM; in data set [9], 25.1 µM; in data set [10] it was > 39.8 µM; in the data set on NIH3T3 it was 50.1 µM; in data set [12], 0.0631 µM. Also, the IC50 at 48 h in [11] was > 100 µM.

Regarding `CC(=O)Nc1nc(-c2cc(C)ccc2C)c(C)s1`, the IC50 in the data set on Trypanosoma cruzi [1] was 0.2 µM; in the data set with Trypanosoma cruzi [2], 0.2 µM; in the data set on Trypanosoma cruzi [3], 0.158 µM; in the data set with Trypanosoma cruzi [4], > 50.1 µM; with Leishmania donovani [5] it was > 50.1 µM; in the data set on Leishmania donovani [6], > 50.1 µM. The IC50 in the data set with Leishmania donovani [7] was 31.6 µM; with Leishmania donovani [8], > 50.1 µM; in data set [9], > 39.8 µM; in [10] it was > 39.8 µM; in the data set with NIH3T3 it was 25.1 µM; in data set [12], > 100 µM. Further, the IC50 at 48 h in data set [11] is > 100 µM.

Regarding `O=c1[nH]c(C=Cc2cccc(OCCOc3ccccc3)c2)nc(O)c1[N+](=O)[O-]`, the IC50 with Trypanosoma cruzi [1] is 0.794 µM; in the data set with Trypanosoma cruzi [2] it was 0.2 µM; in the data set with Trypanosoma cruzi [3], 0.158 µM; in the data set on Trypanosoma cruzi [4], > 50.1 µM; with Leishmania donovani [5], > 50.1 µM; in the data set with Leishmania donovani [6], > 50.1 µM. In addition, the IC50 was > 50.1 µM in the data set with Leishmania donovani [7]; > 50.1 µM with Leishmania donovani [8]; 10 µM in [9]; 10 µM in data set [10]; > 50.1 µM in the data set with NIH3T3; > 100 µM in [12]. Also, the IC50 at 48 h in data set [11] is > 100 µM.

As for `Cn1nccc1-c1cc(OC(CN)c2ccccc2)cnc1-c1ccco1` (stereo not given), the IC50 in the data set on Trypanosoma cruzi [1] is 0.398 µM; in the data set with Trypanosoma cruzi [2], 0.1 µM; in the data set on Trypanosoma cruzi [3], 0.1 µM; in the data set with Trypanosoma cruzi [4] it was > 50.1 µM; in the data set with Leishmania donovani [5] it was > 50.1 µM; with Leishmania donovani [6], > 50.1 µM. Further, the IC50 is 31.6 µM in the data set with Leishmania donovani [7]; 15.8 µM in the data set on Leishmania donovani [8]; 12.6 µM in data set [9]; 15.8 µM in [10]; 20 µM with NIH3T3; 0.0631 µM in data set [12]. In addition, the IC50 at 48 h in data set [11] was 50.1 µM.
